The values below come from patent publication US20240166652A1, “MODULATORS OF THE INTEGRATED STRESS PATHWAY” (Calico Life Sciences LLC, priority 2017, published 2024).

The assay relates to ATF4 luciferase reporter in HEK293T cells. Briefly: ATF4-Luc assay (ATF4 luciferase reporter, tunicamycin-treated HEK293T cells). The class given is cell-based, human. The conditions noted are these: Homo sapiens, HEK-293T; HEK293T cells carrying the ATF4 luciferase reporter, 1 μg/mL tunicamycin, 7 hours.
Take `N[C@H](CC(=O)NC12CC(NC(=O)COc3ccc(Cl)c(F)c3)(C1)C2)Cc1ccccc1` [Compound 810, (3S)-3-amino-N-{3-[2-(4-chloro-3-fluorophenoxy)acetamido]bicyclo[1.1.1]pentan-1-yl}-4-phenylbutanamide]: the EC50 (commonly the midpoint of the concentration-response curve) was greater than 2000 nM. In the case of `O=C(COc1ccc(F)c(F)c1)NC12CCC(NC(=O)COc3ccc(F)cc3)(CC1)[C@@H](O)C2` [Compound 811, 2-(3,4-difluorophenoxy)-N-{(3S)-4-[2-(4-fluorophenoxy)acetamido]-3-hydroxybicyclo[2.2.2]octan-1-yl}acetamide] it was less than 10 nM. For `O=C(COc1ccc(F)c(F)c1)NC12CCC(NC(=O)COc3ccc(F)c(OC(F)(F)F)c3)(CC1)[C@@H](O)C2` [Compound 812, 2-(3,4-difluorophenoxy)-N-[(3S)-4-{2-[4-fluoro-3-(trifluoromethoxy)phenoxy]acetamido}-3-hydroxybicyclo[2.2.2]octan-1-yl]acetamide], the EC50 is less than 10 nM.

As for `O=C(COc1ccc(F)c(F)c1)NC12CCC(NC(=O)COc3ccc(Cl)cc3)(CC1)[C@@H](O)C2` [Compound 813, 2-(4-chlorophenoxy)-N-{(2S)-4-[2-(3,4-difluorophenoxy)acetamido]-2-hydroxybicyclo[2.2.2]octan-1-yl}acetamide], the EC50 was less than 10 nM.

Consider `Cc1cc(OCC(=O)NC23CCC(NC(=O)COc4ccc(Cl)c(F)c4)(CC2)[C@@H](O)C3)ccc1F` [Compound 814, 2-(4-chloro-3-fluorophenoxy)-N-{(2S)-4-[2-(4-fluoro-3-methylphenoxy)acetamido]-2-hydroxybicyclo[2.2.2]octan-1-yl}acetamide], for which the EC50 is less than 10 nM. In the case of `Cc1cc(OCC(=O)NC23CCC(NC(=O)COc4ccc(F)c(F)c4)(CC2)[C@@H](O)C3)ccc1F` [Compound 815, 2-(3,4-difluorophenoxy)-N-{(2S)-4-[2-(4-fluoro-3-methylphenoxy)acetamido]-2-hydroxybicyclo[2.2.2]octan-1-yl}acetamide] it was less than 10 nM; in that of `Cc1cc(OCC(=O)NC23CCC(NC(=O)COc4ccc(Cl)cc4)(CC2)[C@@H](O)C3)ccc1F` [Compound 816, 2-(4-chlorophenoxy)-N-{(2S)-4-[2-(4-fluoro-3-methylphenoxy)acetamido]-2-hydroxybicyclo[2.2.2]octan-1-yl}acetamide], less than 10 nM. With `Cc1cc(OCC(=O)NC23CCC(NC(=O)COc4ccc(F)cc4)(CC2)[C@@H](O)C3)ccc1F` [Compound 817, 2-(4-fluoro-3-methylphenoxy)-N-{(3S)-4-[2-(4-fluorophenoxy)acetamido]-3-hydroxybicyclo[2.2.2]octan-1-yl}acetamide], the EC50 was less than 10 nM.

With `CS(=O)(=O)c1cc(OCC(=O)NC23CCC(NC(=O)COc4ccc(F)c(F)c4)(CC2)[C@@H](O)C3)ccc1F` [Compound 818, 2-(3,4-difluorophenoxy)-N-[(2S)-4-{2-[4-fluoro-3-(methanesulfonyl)phenoxy]acetamido}-2-hydroxybicyclo[2.2.2]octan-1-yl]acetamide], the EC50 lay in the range of 250 to 500 nM.

As for `CS(=O)(=O)c1cc(OCC(=O)NC23CCC(NC(=O)COc4ccc(F)cc4)(CC2)[C@@H](O)C3)ccc1F` [Compound 819, 2-[4-fluoro-3-(methanesulfonyl)phenoxy]-N-{(3S)-4-[2-(4-fluorophenoxy)acetamido]-3-hydroxybicyclo[2.2.2]octan-1-yl}acetamide], the EC50 lay within 500 to 2000 nM.

For `O=C(COc1ccc(F)c(OC(F)(F)F)c1)NC12CCC(NC(=O)COc3ccc(Cl)c(F)c3)(CC1)[C@@H](O)C2` [Compound 820, 2-(4-chloro-3-fluorophenoxy)-N-[(2S)-4-{2-[4-fluoro-3-(trifluoromethoxy)phenoxy]acetamido}-2-hydroxybicyclo[2.2.2]octan-1-yl]acetamide], the EC50 was less than 10 nM. In the case of `O=C(COc1ccc(C(F)(F)F)c(F)c1)NC12CCC(NC(=O)COc3ccc(C(F)(F)F)c(F)c3)(CC1)[C@@H](O)C2` [Compound 821, N,N′-[(2S)-2-hydroxybicyclo[2.2.2]octane-1,4-diyl]bis{2-[3-fluoro-4-(trifluoromethyl)phenoxy]acetamide}], the EC50 was less than 10 nM. To `O=C(COc1ccc(F)c(C(F)(F)F)c1)NC12CCC(NC(=O)COc3ccc(C(F)(F)F)c(F)c3)(CC1)[C@@H](O)C2` [Compound 822, 2-[3-fluoro-4-(trifluoromethyl)phenoxy]-N-[(2S)-4-{2-[4-fluoro-3-(trifluoromethyl)phenoxy]acetamido}-2-hydroxybicyclo[2.2.2]octan-1-yl]acetamide] belongs less than 10 nM. In the case of `O=C(COc1ccc(F)c(C(F)(F)F)c1)NC12CCC(NC(=O)COc3ccc(F)c(C(F)(F)F)c3)(CC1)[C@@H](O)C2` [Compound 823, N,N′-[(2S)-2-hydroxybicyclo[2.2.2]octane-1,4-diyl]bis{2-[4-fluoro-3-(trifluoromethyl)phenoxy]acetamide}] it was less than 10 nM. For `O=C(COc1cccc(C(F)(F)F)n1)NC12CCC(NC(=O)COc3ccc(Cl)c(F)c3)(CC1)[C@@H](O)C2` [Compound 824, 2-(4-chloro-3-fluorophenoxy)-N-[(2S)-2-hydroxy-4-(2-{[6-(trifluoromethyl)pyridin-2-yl]oxy}acetamido)bicyclo[2.2.2]octan-1-yl]acetamide], the EC50 fell in the range of 10 to 50 nM. In the case of `O=C(COc1cccc(C(F)(F)F)n1)NC12CCC(NC(=O)COc3ccc(Cl)cc3)(CC1)[C@@H](O)C2` [Compound 825, 2-(4-chlorophenoxy)-N-[(2S)-2-hydroxy-4-(2-{[6-(trifluoromethyl)pyridin-2-yl]oxy}acetamido)bicyclo[2.2.2]octan-1-yl]acetamide] it was 50 to 250 nM; in that of `CS(=O)(=O)c1cc(OCC(=O)NC23CCC(NC(=O)COc4ccc(Cl)c(F)c4)(CC2)[C@@H](O)C3)ccc1F` [Compound 826, 2-(4-chloro-3-fluorophenoxy)-N-[(2S)-4-{2-[4-fluoro-3-(methanesulfonyl)phenoxy]acetamido}-2-hydroxybicyclo[2.2.2]octan-1-yl]acetamide], 50 to 250 nM; in that of `O=C(COc1ccc(Cl)c(F)c1)NC12CC(NC(=O)C(CCO)Oc3ccc(Cl)cc3)(C1)C2` (centres unmarked) [Compound 827, N-{3-[2-(4-chloro-3-fluorophenoxy)acetamido]bicyclo[1.1.1]pentan-1-yl}-2-(4-chlorophenoxy)-4-hydroxybutanamide], 50 to 250 nM.

On to `O=C(COc1ccc(Cl)c(F)c1)NC12CCC(NC(=O)COc3ccc(F)c(C(F)(F)F)c3)(CC1)[C@@H](O)C2` [Compound 828, 2-(4-chloro-3-fluorophenoxy)-N-[(3S)-4-{2-[4-fluoro-3-(trifluoromethyl)phenoxy]acetamido}-3-hydroxybicyclo[2.2.2]octan-1-yl]acetamide], for which the 50% effective concentration (EC50) is less than 10 nM.

For `O=C(COc1ccc(F)c(F)c1)NC12CCC(NC(=O)COc3ccc(F)c(C(F)(F)F)c3)(CC1)[C@@H](O)C2` [Compound 829, 2-(3,4-difluorophenoxy)-N-[(3S)-4-{2-[4-fluoro-3-(trifluoromethyl)phenoxy]acetamido}-3-hydroxybicyclo[2.2.2]octan-1-yl]acetamide], the concentration giving a half-maximal response (EC50) is less than 10 nM. To `O=C(COc1ccc(Cl)cc1)NC12CCC(NC(=O)COc3ccc(F)c(C(F)(F)F)c3)(CC1)[C@@H](O)C2` [Compound 830, 2-(4-chlorophenoxy)-N-[(3S)-4-{2-[4-fluoro-3-(trifluoromethyl)phenoxy]acetamido}-3-hydroxybicyclo[2.2.2]octan-1-yl]acetamide] belongs less than 10 nM; to `O=C(COc1ccc(F)cc1)NC12CCC(NC(=O)COc3ccc(F)c(C(F)(F)F)c3)(CC1)[C@@H](O)C2` [Compound 831, 2-(4-fluorophenoxy)-N-[(3S)-4-{2-[4-fluoro-3-(trifluoromethyl)phenoxy]acetamido}-3-hydroxybicyclo[2.2.2]octan-1-yl]acetamide], less than 10 nM; to `O=C(COc1ccc(Cl)c(F)c1)NC12CCC(NC(=O)COc3ccc(C(F)(F)F)c(F)c3)(CC1)[C@@H](O)C2` [Compound 832, 2-(4-chloro-3-fluorophenoxy)-N-[(3S)-4-{2-[3-fluoro-4-(trifluoromethyl)phenoxy]acetamido}-3-hydroxybicyclo[2.2.2]octan-1-yl]acetamide], less than 10 nM.

`O=C(COc1ccc(F)c(F)c1)NC12CCC(NC(=O)COc3ccc(C(F)(F)F)c(F)c3)(CC1)[C@@H](O)C2` [Compound 833, 2-(3,4-difluorophenoxy)-N-[(3S)-4-{2-[3-fluoro-4-(trifluoromethyl)phenoxy]acetamido}-3-hydroxybicyclo[2.2.2]octan-1-yl]acetamide]: the EC50 was less than 10 nM. To `O=C(COc1ccc(Cl)cc1)NC12CCC(NC(=O)COc3ccc(C(F)(F)F)c(F)c3)(CC1)[C@@H](O)C2` [Compound 834, 2-(4-chlorophenoxy)-N-[(3S)-4-{2-[3-fluoro-4-(trifluoromethyl)phenoxy]acetamido}-3-hydroxybicyclo[2.2.2]octan-1-yl]acetamide] belongs less than 10 nM. Take `O=C(COc1ccc(F)cc1)NC12CCC(NC(=O)COc3ccc(C(F)(F)F)c(F)c3)(CC1)[C@@H](O)C2` [Compound 835, 2-(4-fluorophenoxy)-N-[(3S)-4-{2-[3-fluoro-4-(trifluoromethyl)phenoxy]acetamido}-3-hydroxybicyclo[2.2.2]octan-1-yl]acetamide]: the EC50 was less than 10 nM. To `O=C(COc1ccc(Cl)cc1)NC12CC(NC(=O)COc3cccc(C(F)(F)F)n3)(C1)C2` [Compound 836, 2-(4-chlorophenoxy)-N-[3-(2-{[6-(trifluoromethyl)pyridin-2-yl]oxy}acetamido)bicyclo[1.1.1]pentan-1-yl]acetamide] belongs 250 to 500 nM; to `O=C(COc1ccc(Cl)cc1)NC12CC(NC(=O)COc3ccc(F)c(F)c3)(C1)C2` [Compound 837, 2-(4-chlorophenoxy)-N-{3-[2-(3,4-difluorophenoxy)acetamido]bicyclo[1.1.1]pentan-1-yl}acetamide], less than 10 nM. In the case of `O=C(COc1ccc(S(F)(F)(F)(F)F)nc1)NC12CCC(NC(=O)COc3ccc(Cl)c(F)c3)(CC1)[C@@H](O)C2` [Compound 838, 2-(4-chloro-3-fluorophenoxy)-N-[(2S)-2-hydroxy-4-(2-{[6-(pentafluoro-lambda^6-sulfanyl)pyridin-3-yl]oxy}acetamido)bicyclo[2.2.2]octan-1-yl]acetamide] it was less than 10 nM.
